For series [1], the system named is xMuLV. The series is classed as cell-based, xenotropic murine leukemia virus. Particulars: initial screen, 10× CMC or 10% w/v, 30 minutes, 15° C., 5% virus spike, PG4 cells.
For series [2] the following is noted: as indicated by the Hampton Kit; cited from earlier work.
Series [3] concerns xMuLV. The experiment in a line: Temperature-dependent study, TCID50 LRV in host cell culture fluid matrices. The class given is cell-based, xenotropic murine leukemia virus. Particulars: for LRV BiTE ® / LRV fusion protein / LRV mAb: 30 minutes, 5× CMC.
Series [4] deals with xMuLV. The experiment in a line: Kinetic study of detergents, TCID50 LRV in host cell culture fluid matrices. The series is classed as cell-based, xenotropic murine leukemia virus.
The next series has as its system PRV. The series is classed as cell-based, pseudorabies herpes virus.
Another series concerns MMV. In words: Concentration study, lowest concentration to inactivate virus. The series is classed as cell-based, mouse minute virus.
Series [5] deals with xMuLV. The description is as above. Particulars: 15° C., 30-minute incubation. The class given is cell-based, xenotropic murine leukemia virus.

For `CCCCCCCCCCOCCOCCOCCOCCOCCOCCOCCOCCOCCO` [Anapoe C10E9], the “Viral inactivation towards xMuLV (CPE)” value with xMuLV [1] is “did not”.

On to `CCCCCCO[C@@H]1O[C@H](CO)[C@@H](O)[C@H](O)[C@H]1O` [n-Hexyl-b-D-glucopyranoside], for which the CMC in series [2] was 250 mM.

As to `O=C(CCCC1CCCCC1)N(CCO)CC(O)C(O)C(O)C(O)CO` (centres unmarked) [C-HEGA ®-10], in series [2], the CMC is given as 35 mM.

As to `OC[C@H]1O[C@H](O[C@H]2[C@H](O)[C@@H](O)[C@H](OCCCC3CCCCC3)O[C@@H]2CO)[C@H](O)[C@@H](O)[C@@H]1O` [CYMAL ®-3, 3-Cyclohexyl-1-Propyl-β-D-Maltoside], in series [2], the CMC is recorded as 34.5 mM.

Turning to `CCCCCCCC(=O)N(CCO)C[C@H](O)[C@@H](O)[C@H](O)[C@H](O)CO` [HEGA ®-8], the CMC in series [2] is recorded as 109 mM.

For `CCCCCCCCCCCCOCCOCCOCCOCCOCCOCCOCCOCCOCCOCCO` [Anapoe C12E10], in the series with xMuLV [1], the “Viral inactivation towards xMuLV (CPE)” value is listed as “did not”.

For the compound `CCCCCCCC(=O)N(C)C[C@H](O)[C@@H](O)[C@H](O)[C@H](O)CO` [MEGA-8], the CMC in series [2] is reported as 79 mM.

In the case of `CCCCCCCNC(=O)OC[C@H]1O[C@H](OC)[C@H](O)[C@@H](O)[C@@H]1O` [HECAMEG ®], the CMC in series [2] is listed as 19.5 mM.

Consider `CCCCCCCCS[C@@H]1O[C@H](CO)[C@@H](O)[C@H](O)[C@H]1O` [n-Octyl-β-D-Thioglucoside], for which the CMC in series [2] is given as 9 mM.

Consider `CCCCCCCCCCCCCC(=O)OC[C@@H](O)COP(=O)([O-])OCC[N+](C)(C)C` [LysoFos ™ Choline 14], for which the CMC in series [2] is 0.036 mM.

Regarding `CCCCCCCCC(=O)N(CCO)C[C@H](O)[C@@H](O)[C@H](O)[C@H](O)CO` [HEGA ®-9], in series [2], the CMC is given as 39 mM.

For Sucrose monolaurate, in series [2], the CMC is given as 0.3 mM.

As for `CCCCCCCCCCCCCOC1OC(CO)C(OC2OC(CO)C(O)C(O)C2O)C(O)C1O` [n-Tridecyl-β-D-maltoside], in series [2], the CMC is 0.033 mM.

Take `CCCCCCCC[N+](C)(C)CCCS(=O)(=O)[O-]` [ZWITTERGENT ® 3-08]: the CMC in series [2] was 330 mM.

With `OC[C@H]1O[C@H](O[C@H]2[C@H](O)[C@@H](O)[C@H](OCCCCCC3CCCCC3)O[C@@H]2CO)[C@H](O)[C@@H](O)[C@@H]1O` [CYMAL ®-5, 5-cyclohexylpentyl-β-D-maltoside], the figures for the “LRV BiTE ®” value with xMuLV [3] (15° C.) and in the series with xMuLV [3] (22° C.) were −0.06 ± 0.69 and 1.19 ± 0.29, respectively. The LRV fusion protein is 0.62 ± 0.48 with xMuLV [3] (15° C.) and 1.01 ± 0.45 with xMuLV [3] (22° C.). The “LRV mAb” value was determined as 0.62 ± 0.50 in the series on xMuLV [3] (15° C.) and 1.94 ± 0.52 in the series on xMuLV [3] (22° C.). For the same compound, in the series with xMuLV [3] (22° C. versus 15° C.), the “increase in LRV at higher temperature (22° C.)” value is about 1 log. The “Inactivation towards xMuLV at any temperature tested” value with xMuLV [3] (in product matrices) was “did not yield significant inactivation”. Besides, the “average LRV” value with xMuLV [3] (process temperature of 15° C., average over modalities) is 0.39. In addition, in series [2], the CMC was 5 mM. For the same compound, the “Clearance of xMuLV within 30 minutes” value in the series with xMuLV [4] (15° C.) is recorded as “did not lead to robust clearance”. For the same compound, the “LRV 30 s” value in the series with xMuLV [4] (BiTE ® #1, 15° C.) is 0.19 ± 0.69; with xMuLV [4] (fusion protein #1, 15° C.), −0.06 ± 0.69; with xMuLV [4] (mAb #1, 15° C.), 0.25 ± 0.58. In addition, the “LRV 10 min” value with xMuLV [4] (BiTE ® #1, 15° C.) was 0.06 ± 0.58; in the series with xMuLV [4] (fusion protein #1, 15° C.) it was 0.31 ± 0.52; in the series on xMuLV [4] (mAb #1, 15° C.), 0.12 ± 0.58. In addition, the “LRV 30 min” value in the series with xMuLV [4] (BiTE ® #1, 15° C.) is on record as −0.06 ± 0.69; in the series on xMuLV [4] (fusion protein #1, 15° C.), 0.62 ± 0.48; in the series on xMuLV [4] (mAb #1, 15° C.) it was 0.62 ± 0.50. Moreover, the “Cytopathic effects (CPE) at 2.5×CMC” value in the series with PRV, with MMV and in the series on xMuLV [5] was “showed cytopathic effects (CPE)” each time.

Take `OC[C@H]1O[C@H](O[C@H]2[C@H](O)[C@@H](O)[C@H](OCCCCCCC3CCCCC3)O[C@@H]2CO)[C@H](O)[C@@H](O)[C@@H]1O` [CYMAL ®-6, 6-cyclohexyl-1-hexyl-β-D-maltoside]: the CMC in series [2] was 0.56 mM.

Turning to `CCCCCCCCOCCOCCOCCOCCOCCO` [Detergent C8E5], the CMC in series [2] was 7.1 mM.

Consider `CCCCCCCCO[C@@H]1O[C@H](CO)[C@@H](O)[C@H](O)[C@H]1O` [n-Octyl-b-D-glucoside], for which the CMC in series [2] is 20 mM.

With `CCCCCCCCCCCC[N+](C)(C)CCCC(=O)[O-]` [DDMAB], the CMC in series [2] was 4.3 mM.

For `CCCCCCCCC(=O)N(C)C[C@H](O)[C@@H](O)[C@H](O)[C@H](O)CO` [MEGA-9], the CMC in series [2] is 25 mM.

Turning to `CC(C)CC(CC(C)C)O[C@@H]1O[C@H](CO)[C@@H](O[C@H]2O[C@H](CO)[C@@H](O)[C@H](O)[C@H]2O)[C@H](O)[C@H]1O` [2,6-Dimethyl-4-heptyl-b-D-malto-pyranoside], the CMC in series [2] is reported as 27.5 mM.

Take `CCCCCCCCCCOP(=O)(O)OCCNC` [FOS-MEA ®-10]: the CMC in series [2] was 5.25 mM.

As to `CCCCCCCCOCCOCCOCCOCCOCCOCCO` [Hexaethylene glycol monooctyl ether], the CMC in series [2] is listed as 10 mM.

For `CCCCCCCCCCOCCOCCOCCOCCOCCOCCO` [Anapoe C10E6], the “Viral inactivation towards xMuLV (CPE)” value in the series on xMuLV [1] was “did not”.

As to `CCCCCCCCCCCC(=O)OC[C@@H](O)COP(=O)([O-])OCC[N+](C)(C)C` [LysoFos ™ Choline 12], the CMC in series [2] is on record as 0.7 mM.

For `O=C(CCC1CCCCC1)N(CCO)C[C@H](O)[C@@H](O)[C@H](O)[C@H](O)CO` [C-HEGA ®-9], the CMC in series [2] is listed as 108 mM.

For the compound n-Decanoylsucrose, the CMC in series [2] is 2.5 mM.

Turning to `OC[C@H]1O[C@H](O[C@H]2[C@H](O)[C@@H](O)[C@H](OCCCCC3CCCCC3)O[C@@H]2CO)[C@H](O)[C@@H](O)[C@@H]1O` [CYMAL ®-4, 4-Cyclohexyl-1-Butyl-β-D-Maltoside], in series [2], the CMC is on record as 7.6 mM.

For `CCCCCCCCCC(=O)N(C)C[C@H](O)[C@@H](O)[C@H](O)[C@H](O)CO` [MEGA-10], in series [2], the CMC is 7 mM.

Turning to `CCCCCCCCS[C@@H]1O[C@H](CO)[C@@H](O[C@H]2O[C@H](CO)[C@@H](O)[C@H](O)[C@H]2O)[C@H](O)[C@H]1O` [n-Octyl-β-D-Thiomaltopyranoside], the CMC in series [2] was 8.8 mM.

With `CCCCCCCCCCCCO[C@@H]1O[C@H](CO)[C@@H](O[C@H]2O[C@H](CO)[C@@H](O)[C@H](O)[C@H]2O)[C@H](O)[C@H]1O` [n-Dodecyl-b-D-maltoside], the CMC in series [2] is reported as 0.17 mM.

`CCCCCCCCOCCOCCOCCOCCO` [Detergent C8E4]: in series [2], the CMC is 8 mM.

Turning to `CCCCCCCCCC(=O)N(CCO)C[C@H](O)[C@@H](O)[C@H](O)[C@H](O)CO` [HEGA ®-10], the CMC in series [2] is 7 mM.

Turning to `CCCCCCCCCO[C@@H]1O[C@H](CO)[C@@H](O)[C@H](O)[C@H]1O` [n-Nonyl-b-D-glucoside], in series [2], the CMC is 6.5 mM.

Consider `CCCCCCCCCS[C@@H]1O[C@H](CO)[C@@H](O[C@H]2O[C@H](CO)[C@@H](O)[C@H](O)[C@H]2O)[C@H](O)[C@H]1O` [n-Nonyl-b-D-thiomaltoside], for which, in series [2], the CMC is 3.2 mM.

Turning to `CCCCCCCCCCO[C@@H]1O[C@H](CO)[C@@H](O[C@H]2O[C@H](CO)[C@@H](O)[C@H](O)[C@H]2O)[C@H](O)[C@H]1O` [n-Decyl-b-D-maltoside], the CMC in series [2] is 1.8 mM.

On to `C[C@H](CCC(=O)NCCC[N+](C)(C)CC(O)CS(=O)(=O)[O-])[C@H]1CC[C@H]2[C@@H]3[C@H](O)C[C@@H]4C[C@H](O)CC[C@]4(C)[C@H]3C[C@H](O)[C@]12C` (some centres unmarked) [CHAPSO], for which the CMC in series [2] is given as 8 mM.

Take `CCCCCCCCCCCCCOCCOCCOCCOCCOCCOCCOCCOCCO` [Anapoe C13E8]: the “Viral inactivation towards xMuLV (CPE)” value with xMuLV [1] is on record as “did not”.

On to `C[C@H](CCC(=O)NCCC[N+](C)(C)CCCS(=O)(=O)[O-])[C@H]1CC[C@H]2[C@@H]3[C@H](O)C[C@@H]4C[C@H](O)CC[C@]4(C)[C@H]3C[C@H](O)[C@]12C` [CHAPS], for which the CMC in series [2] is recorded as 8 mM.

`CCCCCCCCCO[C@@H]1O[C@H](CO)[C@@H](O[C@H]2O[C@H](CO)[C@@H](O)[C@H](O)[C@H]2O)[C@H](O)[C@H]1O` [n-Nonyl-b-D-maltoside]: the CMC in series [2] is 6 mM.

Take `CCCCCCCCCCCO[C@@H]1O[C@H](CO)[C@@H](O[C@H]2O[C@H](CO)[C@@H](O)[C@H](O)[C@H]2O)[C@H](O)[C@H]1O` [n-Undecyl-b-D-maltoside]: the CMC in series [2] was 0.59 mM.

As to `OC[C@H]1O[C@H](O[C@H]2[C@H](O)[C@@H](O)[C@H](OCCCCCCCC3CCCCC3)O[C@@H]2CO)[C@H](O)[C@@H](O)[C@@H]1O` [CYMAL ®-7, 7-cyclohexyl-l-heptyl-β-D-maltoside], in series [2], the CMC was 0.19 mM.

Turning to `O=C(CCCCC1CCCCC1)N(CCO)CC(O)C(O)C(O)C(O)CO` (centres unmarked) [C-HEGA ®-11], the CMC in series [2] is given as 11.5 mM.

Source of the values: patent publication US12649907B2, “Alternate detergents for viral inactivation” (AMGEN INC., priority 2019, dated 2026).
